Measured values published in PubChem BioAssay (NCI).
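How tested: cells in 96-well plates exposed to compound for 48 hours at five concentrations. TGI denotes the concentration required for complete inhibition of growth.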

Legend:
Experiment in all cases: growth of human tumour cells (NCI), 48 h
[1] = tested on: OVCAR-4 ovarian
[2] = tested on: SK-MEL-5 melanoma
[3] = tested on: LOX IMVI melanoma
[4] = tested on: RXF 393 renal
[5] = tested on: SK-MEL-28 melanoma
[6] = tested on: MDA-MB-435
[7] = tested on: HS 578T breast
[8] = tested on: UACC-62 melanoma
[9] = tested on: U251 CNS
[10] = tested on: UACC-257 melanoma
[11] = tested on: NCI-H23 lung
[12] = tested on: SF-295 CNS
[13] = tested on: DU-145 prostate
[14] = tested on: BT-549 breast
[15] = tested on: T-47D breast
[16] = tested on: SK-OV-3 ovarian
[17] = tested on: MOLT-4 leukemia
[18] = tested on: CCRF-CEM leukemia
[19] = tested on: OVCAR-8 ovarian
[20] = tested on: SF-268 CNS
[21] = tested on: NCI-H460 lung
[22] = tested on: COLO 205 colon
[23] = tested on: HT29 colon
[24] = tested on: OVCAR-5 ovarian
[25] = tested on: KM12 colon
[26] = tested on: HOP-92 NSCLC
[27] = tested on: SNB-19 CNS
[28] = tested on: OVCAR-3 ovarian
[29] = tested on: SW-620 colon
[30] = tested on: SNB-75 CNS
[31] = tested on: PC-3 prostate
[32] = tested on: SF-539 CNS
[33] = tested on: HCT-116 colon
[34] = tested on: MDA-MB-231 breast
[35] = tested on: 786-0 renal
[36] = tested on: ACHN renal
[37] = tested on: IGROV1 ovarian
[38] = tested on: HCC-2998 colon
[39] = tested on: HCT-15 colon
[40] = tested on: MCF7 breast
[41] = tested on: UO-31 renal
[42] = tested on: MALME-3M melanoma
[43] = tested on: MDA-N
[44] = tested on: SN12C renal
[45] = tested on: EKVX NSCLC
[46] = tested on: A498 renal
[47] = tested on: NCI-H522 lung
[48] = tested on: NCI/ADR-RES ovarian
[49] = tested on: NCI-H226 lung
[50] = tested on: K-562 leukemia
[51] = tested on: CAKI-1 renal
[52] = tested on: M14 melanoma
[53] = tested on: SR leukemia
[54] = tested on: HL-60(TB) leukemia
[55] = tested on: A549 NSCLC
[56] = tested on: SK-MEL-2 melanoma
[57] = tested on: RPMI-8226 leukemia

Measured: TGI

CCCC[C@@H]1CCN2C[C@@H](O)[C@@H](O)[C@@H]2[C@H]1O
> 100 µM: [1] | [2] | [3] | [4] | [5] | [6] | [7] | [8] | [9] | [10] | [11] | [12] | [13] | [14] | [15] | [16] | [17] | [18] | [19] | [20] | [21] | [22] | [23] | [24] | [25] | [26] | [27] | [28] | [29] | [30] | [31] | [32] | [33] | [34] | [35] | [36] | [37] | [38] | [39] | [40] | [41] | [42] | [43] | [44] | [45] | [46] | [47] | [48] | [49] | [50] | [51] | [52] | [53] | [54] | [55] | [56] | [57]
